How the values were obtained:
[1] = ethanol; cited from earlier work
[2] = molecular target: T1, COX-2 (Homo sapiens, UniProt P35354); details: comparison values for other COX-2 substrates; cited from earlier work
T1 sequence (P35354 18-604): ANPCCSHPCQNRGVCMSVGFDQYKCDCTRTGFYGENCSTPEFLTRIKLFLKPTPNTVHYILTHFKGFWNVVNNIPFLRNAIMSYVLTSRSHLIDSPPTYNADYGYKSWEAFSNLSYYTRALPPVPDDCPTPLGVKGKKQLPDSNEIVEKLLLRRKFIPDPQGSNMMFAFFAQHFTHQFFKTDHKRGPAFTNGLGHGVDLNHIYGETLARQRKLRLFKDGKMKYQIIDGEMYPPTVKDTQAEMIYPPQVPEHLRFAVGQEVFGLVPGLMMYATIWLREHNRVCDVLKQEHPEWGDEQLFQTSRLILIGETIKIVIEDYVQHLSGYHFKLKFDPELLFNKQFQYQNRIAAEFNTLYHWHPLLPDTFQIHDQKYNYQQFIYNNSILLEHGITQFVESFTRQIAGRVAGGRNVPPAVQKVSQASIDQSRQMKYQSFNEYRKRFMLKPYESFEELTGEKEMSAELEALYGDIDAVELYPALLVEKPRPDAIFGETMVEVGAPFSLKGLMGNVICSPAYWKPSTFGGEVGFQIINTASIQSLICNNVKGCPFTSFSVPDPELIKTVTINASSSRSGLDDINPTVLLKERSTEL

[3] = molecular target: T1, COX-2; assay: COX-2 fluorescence assay with CoxFluor (fluorimeter / plate reader); format: biochemical; parameters: made in house; details: COX-2 250 nM, 4 h
Experimental: Fluorimeter Fluorescence Assay. The fluorescence assays were performed in microquartz cuvettes or submicroquartz cuvettes with a maximum volume of 600 μL. Reactions were monitored at room temperature using 540 nm excitation and emission was collected from 550-700 nm with a slit width of 1.25 mm. Total volumes of the reaction mixtures were maintained at 570 μL. […] Experiments in the presence of reduced GSH were conducted according to the same procedure, but GSH (30 μL, 19 mM in 100 mM Tris-HCl, pH 8.0) was added before the addition of CoxFluor for a final concentration of 1 mM. Assays performed in submicroquartz cuvettes were performed maintaining the same ratios, but with a final volume of 142.5 μL.
Plate Reader Fluorescence Assay. The fluorescence assays were performed at room temperature using 540 nm excitation and 590 nm emission. Total volume of the reaction mixture was maintained at 190 μL. […] Inhibition assays were performed according to the same procedure, but COX-2 was preincubated with hemin and inhibitor for 0.5 h at 0° C. before initiation with CoxFluor. Relative fluorescence enhancement is calculated by comparing to a buffer control with 10 μM CoxFluor.

[4] = Photophysical characterization; format: physicochemical
Experimental: Photophysical Characterization. Extinction coefficients and fluorescence quantum yields were acquired (n=3) and reported as the average with a relative standard deviation less than 15%. Extinction coefficients were acquired by titrating compound in 100 mM Tris-HCl (pH 8.0) within the linear range. Fluorescence quantum yields were obtained using the modified method for relative fluorescence quantum yield. Dye was titrated into the solution and the absorbance and emission were monitored (excitation at 540 nm). The absorbance was maintained below 0.1 to limit secondary absorbance events. Total emission spectra were integrated, and the relative quantum yield was calculated relative to Rhodamine B (ϕ=0.70, ethanol). The refractive index of 100 mM Tris-HCl (pH 8.0) was measured to be 1.33514.

[5] = CoxFluor, Ctrl-CoxFluor & Resorufin stability assays; format: physicochemical; details: 8 hours at room temperature or 37° C., with or without ambient light
Experimental: CoxFluor, Ctrl-CoxFluor & Resorufin Stability Assays. Stability assays were performed for a 10 μM solution of each compound in a series of buffers/solvents (100 mM Tris-HCl at pH 8.0, DMEM with 10% FBS, DMEM without serum and DMSO). Stability was assessed at room temperature or at 37° C. and in the presence or absence of ambient light. Fluorescence was measured using the plate reader with excitation at 540 nm and emission from 560-700 nm and the relative turn-on was determined by the change of fluorescence intensity at 590 nm.

[6] = tested on: COX-2 activity in HEK 293T cells over-expressing human COX-2; assay: Confocal live-cell imaging of human COX-2 transfected HEK 293T cells; format: cell-based; details: indomethacin 10 μM, CoxFluor 10 μM, 3 h
Experimental: Prior to plating onto 4-well chambered cover glasses, the surface exposed substrate was coated with R&D Systems™ Cultrex Poly-L-Lysine (Fisher Scientific) according to the manufacturers protocol (allowed to dry>3 h). […] Transfections was performed using Lipofectamine 3000 (Thermo Fisher Scientific) according to the manufacturer's protocol. […] Media was removed from each well and replaced with 500 μL Opti-MEM™ Reduced Serum Media followed by the addition of 20 μL transfection master mix.
Transfections were performed using the Lipofectamine 3000 reagent according to the aforementioned protocol. Control wells were treated the same as the transfected wells without the addition of the transfection master mix. […] Each well was imaged using a Zeiss LSM 700 confocal microscope (n=3 technical replicates; n=4 biological replicates). For GSH knockdown experiments, the initial media change was performed with 1 mM NEM (0.1% DMSO final concentration) in serum-free DMEM media and the cells were allowed to incubate for 30 minutes before proceeding to the staining with CoxFluor. […] All images were processed using identical parameters and false colored (LUT: jet.lut) in ImageJ.

[7] = substrate: CCCCC/C=C\C/C=C\C/C=C\C/C=C\CCCC(=O)N1c2ccc(O)cc2Oc2cc(O)ccc21; assay: COX-2 fluorescence assay with CoxFluor (fluorimeter / plate reader); format: biochemical, human; details: other: steady state; COX-2 50 nM, hemin 200 nM; pH 8.0

In the case of CCN(CC)c1ccc2c(-c3ccccc3C(=O)O)c3ccc(=[N+](CC)CC)cc-3oc2c1.[Cl-] [Rhodamine B], the “quantum yield ϕ of reference standard” value [1] is listed as 0.70.

For CCCCC/C=C\C/C=C\C/C=C\C/C=C\CCCC(=O)NCCO [arachidonyl ethanolamide], the Km [2] is given as 24 µM.

In the case of CCN1C(=O)C=CC1=O [NEM, N-ethylmaleimide, reference compound], the “effect on COX activity” value ([3]; varying N-ethylmaleimide concentrations, CoxFluor 10 μM) is reported as “does not affect COX activity”.

In the case of O=c1ccc2nc3ccc(O)cc3oc-2c1 [resorufin, reference compound], the “extinction coefficient ε at 573 nm” value ([4]; 100 mM Tris-HCl pH 8.0) is reported as 73,000 M^−1cm^−1, the “fluorescence quantum yield ΦF” value ([4]; 100 mM Tris-HCl pH 8.0, relative to Rhodamine B) is reported as 0.55 and the “stability in Tris-HCl and DMEM buffer systems” value [5] is reported as “stable”.

For CCCCC/C=C\C/C=C\C/C=C\C/C=C\CCCC(=O)O [AA, arachidonic acid], the Km [2] is listed as 6 µM.

For COc1ccc2c(c1)c(CC(=O)O)c(C)n2C(=O)c1ccc(Cl)cc1 [indomethacin, reference compound], the “fluorescence enhancement of transfected cells upon treatment with inhibitor” value [6] was “no fluorescence enhancement was observed”.

For CCCCCCCCCCCCCCCCCCCC(=O)N1c2ccc(O)cc2Oc2cc(O)ccc21 [Ctrl-CoxFluor], the “reactivity with COX-2 under the same reaction conditions” value ([3]; hemin 1 μM) was “unreactive”.

B1: recombinant human COX-2 (Homo sapiens) (protein)
chain: ANPCCSHPCQNRGVCMSVGFDQYKCDCTRTGFYGENCSTPEFLTRIKLFLKPTPNTVHYILTHFKGFWNVVNNIPFLRNAIMSYVLTSRSHLIDSPPTYNADYGYKSWEAFSNLSYYTRALPPVPDDCPTPLGVKGKKQLPDSNEIVEKLLLRRKFIPDPQGSNMMFAFFAQHFTHQFFKTDHKRGPAFTNGLGHGVDLNHIYGETLARQRKLRLFKDGKMKYQIIDGEMYPPTVKDTQAEMIYPPQVPEHLRFAVGQEVFGLVPGLMMYATIWLREHNRVCDVLKQEHPEWGDEQLFQTSRLILIGETIKIVIEDYVQHLSGYHFKLKFDPELLFNKQFQYQNRIAAEFNTLYHWHPLLPDTFQIHDQKYNYQQFIYNNSILLEHGITQFVESFTRQIAGRVAGGRNVPPAVQKVSQASIDQSRQMKYQSFNEYRKRFMLKPYESFEELTGEKEMSAELEALYGDIDAVELYPALLVEKPRPDAIFGETMVEVGAPFSLKGLMGNVICSPAYWKPSTFGGEVGFQIINTASIQSLICNNVKGCPFTSFSVPDPELIKTVTINASSSRSGLDDINPTVLLKERSTEL
notes: made in house
In the case of B1, the Km [7] is reported as 22 µM and the kcat [7] is reported as 0.317 s⁻¹.
